According to patent US20240210412A1, “SULFONYL-TRIAZOLE COMPOUNDS USEFUL AS LIGANDS AND INHIBITORS OF PROSTAGLANDIN REDUCTASE 2” (University of Virginia Patent Foundation, priority 2021, published 2024):
“Also recorded” adds a separate entry of the source.

How the values were obtained:
Q6IS14 = experiment: SILAC LC-MS ABPP; format: cell-based, human; settings: 25 μM 2 h, live DM93 cells
Protocol: (§1) Cells were grown to 90-95% confluence before being washed once with warm, sterile DPBS (1×, 5 mL), followed by addition of 10 mL of serum-free media (supplemented with 1% L-glutamine) containing either DMSO or SuTEx fragment (in DMSO) was added. Light cells were treated with DMSO vehicle while the heavy cells were treated with DMSO or SuTEx fragment (in DMSO) and incubated for 2 hrs. After 2 hrs, the cells were treated with SuTEx alkyne probe (HHS475, 10 μL of 1000× DMSO stock) and incubated for an additional 2 hrs. The media was aspirated and cells washed with cold PBS (5 mL) and harvested. Cells were spun at 500×g for 5 min at 4° C. followed by removal of supernatant. Pellets were resuspended in 1 mL of cold DPBS and spun at 1,400×g for 3 min at 4° C. followed by removal of supernatant. The cells were lysed in PBS by sonication and fractionated (100,000×g, 45 min, 4° C.).The light and heavy soluble fractions were diluted to 2.3 mg/mL in PBS and 432 μL were used for analysis (1 mg total protein). The probe-modified proteomes were conjugated to desthiobiotin-PEG3-azide (10 μl of 10 mM stock in DMSO; 200 μM final concentration) using TCEP (10 μl of fresh 50 mM stock in water, 1 mM final concentration), TBTA ligand (33 μl of a 1.7 mM 4:1 t-butanol/DMSO stock, 100 μM final concentration) and CuSO4 (10 μl of 50 mM stock, 1 mM final concentration). Samples were vortexed to mix and incubated for 1 hr at room temperature. The heavy and light proteomes were mixed 1:1 and the subsequent steps, including LC-MS/MS data analysis, were performed as previously described^[8a].
(§2) Coupling cell-based screens with chemical proteomics can facilitate the identification of target protein and binding sites that engage and are irreversibly modified by covalent ligands^[12]. In these assays, covalent ligands block SuTEx activity-based probe (ABP) labeling at protein sites, and the competition of probe labeling can be used to quantify potency and selectivity across the proteome^[10a]. To facilitate quantitative chemical proteomics, DM93 melanoma cells were cultured using stable isotopic labeling by amino acids in cell culture (SILAC)^[13]. Cells cultured in “light” media were treated with dimethyl sulfoxide (DMSO) vehicle while cells cultured in “heavy” media were treated with SuTEx ligand (25 μM, 2 hours, 37° C.). Next, cells were treated with HHS-475 probe (100 μM, 2 hours, 37° C.) followed by lysis and processing of proteomes for analysis. Probe-modified proteins from the soluble fraction were conjugated to a desthiobiotin-azide tag by copper-catalyzed azide-alkyne cycloaddition (CuAAC)^[14] followed by mixing of the light and heavy proteomes. The combined proteomes were digested with trypsin protease to produce probe-modified peptides, followed by enrichment and purification by avidin affinity chromatography. Probe-modified peptides were resolved, identified, and quantified by high-resolution liquid chromatography-tandem mass spectrometry (LC-MS/MS). Resultant data were analyzed as previously described^[8a, 10a]. Table 2, below, lists sites of modification targeted by sulfonyl-triazole compounds HHS-0101, HHS-0201, HHS-0301, HHS-0401, and HHS-0701. The format of the table is as follows: protein Uniprot accession number (see uniprot.org); tyrosine site (amino acid position) modified; treatment (sulfonyl-triazole compound identification number, followed by Y (where if multiple compounds modify the same site, the compounds are separated by vertical lines).

Q5VTE0 = experiment: SILAC LC-MS ABPP; format: cell-based, human; settings: 25 μM 2 h, live DM93 cells
Protocol: as §1, §2

Q9Y5K3 = experiment: SILAC LC-MS ABPP; format: cell-based, human; settings: 25 μM 2 h, live DM93 cells
Protocol: as §1, §2

O15523 = experiment: SILAC LC-MS ABPP; format: cell-based, human; settings: 25 μM 2 h, live DM93 cells
Protocol: as §1, §2

Q8N0Y7 = experiment: SILAC LC-MS ABPP; format: cell-based, human; settings: 25 μM 2 h, live DM93 cells
Protocol: as §1, §2

[1] = target: T1, Fumarylacetoacetase (FAH) (Homo sapiens, UniProt P16930); experiment: gel-based ABPP, HHS-475 probe, HEK293T cells expressing recombinant FAH; format: cell-based; settings: live HEK293T cells, ligand 25 μM or varying, 2 h; HHS-475 100 μM
T1 construct: FLAG; host or cells: HEK293T
T1 sequence (P16930 whole entry): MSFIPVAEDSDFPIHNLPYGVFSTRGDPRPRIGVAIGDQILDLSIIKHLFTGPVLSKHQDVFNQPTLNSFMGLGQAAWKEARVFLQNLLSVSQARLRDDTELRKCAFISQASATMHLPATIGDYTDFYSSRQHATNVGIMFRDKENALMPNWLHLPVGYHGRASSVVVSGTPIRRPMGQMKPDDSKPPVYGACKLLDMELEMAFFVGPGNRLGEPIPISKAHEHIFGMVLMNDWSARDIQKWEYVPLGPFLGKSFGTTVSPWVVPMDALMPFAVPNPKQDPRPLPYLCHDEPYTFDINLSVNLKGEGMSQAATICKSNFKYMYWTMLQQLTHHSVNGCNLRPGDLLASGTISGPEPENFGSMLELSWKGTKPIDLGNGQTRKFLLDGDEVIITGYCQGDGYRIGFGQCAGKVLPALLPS
Protocol: HEK293T cells at 30-50% confluency were transfected with 2.6 μg of FAH or PTGR2 plasmid DNA in a serum-free media/polyethyleneimine solution for 48 hrs. The cells were washed once with warm, sterile DPBS (1×, 5 mL), and then 10 mL of serum-free media (supplemented with 1% L-glutamine) containing either DMSO or SuTEx fragment (in DMSO) was added. After 2 hrs, the cells were treated with 100 μM of SuTEx alkyne probe (HHS-475, 10 μL of 1000× DMSO stock) and incubated for an additional 2 hrs. The media was aspirated and cells washed with cold PBS (5 mL) and harvested. Cells were spun at 500×g for 5 min at 4° C. and supernatant was removed. Pellets were resuspended in 1 mL of cold DPB S and spun at 1,400×g for 3 min at 4° C. and supernatant was removed. […] The samples were analyzed by SDS-PAGE (30 μL) and imaged by in-gel fluorescence scanning.
Competitive gel-based chemoproteomic assays were performed using recombinant proteins from select targets to verify our LC-MS findings. […] Quantitative chemical proteomic studies identified HHS-0401 as a ligand for the Y244 site of FAH. These findings were confirmed by treating HEK293T cells expressing recombinant FAH with SuTEx ligands (25 μM, 2 hours, 37° C.) followed by labeling with HHS-475 probe (100 μM, 2 hours, 37° C.), cell lysis, and conjugation with rhodamine azide by CuAAC to visualize probe-modified proteins using in-gel fluorescence scanning.

Q8NFI4 = experiment: SILAC LC-MS ABPP; format: cell-based, human; settings: 25 μM 2 h, live DM93 cells
Protocol: as §1, §2

O=C(NC1CC1)c1ccc(S(=O)(=O)n2cncn2)cc1 [HHS-0101, 4-((1H-1,2,4-triazol-1-yl)sulfonyl)-N-cyclopropylbenzamide]
liganded tyrosine site 127 (Q6IS14): HHS0101.Y|HHS0201.Y|HHS0701.Y (tyrosine sites that showed >80% reductions (SR >5) in probe labeling in cells treated with compounds (liganded sites))
liganded tyrosine site 183 (Q5VTE0): HHS0101.Y (tyrosine sites that showed >80% reductions (SR >5) in probe labeling in cells treated with compounds (liganded sites))

O=C(NC1CCCCC1)c1ccc(S(=O)(=O)n2cncn2)cc1 [HHS-0301, 4-((1H-1,2,4-triazol-1-yl)sulfonyl)-N-cyclohexylbenzamide]
liganded tyrosine site 173 (Q9Y5K3): HHS0301.Y (tyrosine sites that showed >80% reductions (SR >5) in probe labeling in cells treated with compounds (liganded sites))

O=C(NCc1ccccc1)c1ccc(S(=O)(=O)n2cncn2)cc1 [HHS-0401, 4-((1H-1,2,4-triazol-1-yl)sulfonyl)-N-benzylbenzamide]
liganded tyrosine site 264 (O15523): HHS0401.Y (tyrosine sites that showed >80% reductions (SR >5) in probe labeling in cells treated with compounds (liganded sites))
liganded tyrosine site 119 (Q8N0Y7): HHS0401.Y (tyrosine sites that showed >80% reductions (SR >5) in probe labeling in cells treated with compounds (liganded sites))
blockade of HHS-475 labeling of FAH [1]: blocked HHS-475 labeling of FAH; also recorded: competing probe labeling of recombinant FAH in a concentration-dependent manner

O=C(NCC1CC1)c1ccc(S(=O)(=O)n2cncn2)cc1 [HHS-0201, 4-((1H-1,2,4-triazol-1-yl)sulfonyl)-N-(cyclopropylmethyl)benzamide]
liganded tyrosine site 213 (Q8NFI4): HHS0201.Y (tyrosine sites that showed >80% reductions (SR >5) in probe labeling in cells treated with compounds (liganded sites))
